Measured values: patent publication US20110104301A1, “METHODS OF REDUCING PAIN AND INFLAMMATION” (Georgetown University, A Congressionally Chartered …, priority 2008, published 2011)

Tests used:
[1] = system: DRG neurons from TRPA1-null mice; assay: Ca2+ imaging in DRG neurons from TRPA1-null mice; assay type: cell-based, mouse; conditions: desflurane n=125, propofol n=120
Protocol: Ca^2+ Imaging. Neurons were loaded with 1 μM Fluo4-AM (Molecular Probes) for 20 min and washed for a further 10-20 min before recording. The dye was excited at 488±15 nm. Emitted fluorescence was filtered with a 535±25 nm bandpass filter, captured by a SPOT RT digital camera (Diagnostic Instruments) and read into a computer. Analysis was performed offline by using Simple PCI software (Compix Inc.).

mouse TRPA1 = biological target: T1, mouse TRPA1 (Mus musculus, UniProt Q8BLA8); assay: Current-voltage recordings in mTRPA1-expressing HEK293 cells; assay type: cell-based; conditions: desflurane 1 mM
T1 construct: expressed in transfected cells; host or cells: HEK293
T1 sequence (Q8BLA8 whole entry): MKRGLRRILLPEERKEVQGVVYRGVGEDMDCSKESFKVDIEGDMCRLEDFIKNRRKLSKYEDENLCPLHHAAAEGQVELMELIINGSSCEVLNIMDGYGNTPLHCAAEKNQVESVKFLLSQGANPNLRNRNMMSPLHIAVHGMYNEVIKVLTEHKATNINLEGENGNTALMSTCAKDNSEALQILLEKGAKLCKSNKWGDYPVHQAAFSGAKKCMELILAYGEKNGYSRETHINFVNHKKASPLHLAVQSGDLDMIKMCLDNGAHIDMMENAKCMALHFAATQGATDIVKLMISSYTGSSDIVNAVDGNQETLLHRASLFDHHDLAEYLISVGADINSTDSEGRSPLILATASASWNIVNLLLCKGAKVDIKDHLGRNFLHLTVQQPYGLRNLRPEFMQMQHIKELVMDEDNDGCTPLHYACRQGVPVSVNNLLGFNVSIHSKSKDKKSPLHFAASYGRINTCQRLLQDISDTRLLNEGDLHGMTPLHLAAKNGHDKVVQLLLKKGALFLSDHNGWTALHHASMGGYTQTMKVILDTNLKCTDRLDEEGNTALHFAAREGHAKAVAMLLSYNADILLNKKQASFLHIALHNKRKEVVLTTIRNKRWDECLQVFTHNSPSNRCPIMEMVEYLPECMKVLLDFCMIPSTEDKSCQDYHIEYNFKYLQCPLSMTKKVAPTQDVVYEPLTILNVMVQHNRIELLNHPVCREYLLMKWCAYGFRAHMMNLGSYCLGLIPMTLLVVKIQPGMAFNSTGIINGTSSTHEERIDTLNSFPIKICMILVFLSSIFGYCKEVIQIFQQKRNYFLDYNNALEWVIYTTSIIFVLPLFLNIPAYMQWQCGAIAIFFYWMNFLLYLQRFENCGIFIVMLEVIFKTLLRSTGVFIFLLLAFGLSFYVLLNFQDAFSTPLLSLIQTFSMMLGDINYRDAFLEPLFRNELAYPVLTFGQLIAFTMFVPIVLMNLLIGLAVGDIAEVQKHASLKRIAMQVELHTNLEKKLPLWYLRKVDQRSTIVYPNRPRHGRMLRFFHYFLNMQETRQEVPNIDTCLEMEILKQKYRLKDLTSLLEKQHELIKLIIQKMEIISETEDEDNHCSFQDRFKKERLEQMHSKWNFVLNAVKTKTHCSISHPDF
Protocol: (§1) A genetic approach was used to identify critical sites in TRPA1 and TRPV1 required for activation by general anesthetics. Drosophila TRPA1 is insensitive to desflurane (at concentrations up to 3 mM). […] Note that dTRPA1 is insensitive to AITC. Next, several chimeric TRP proteins containing dTRPA1 (unresponsive to desflurane) and mTRPA1 were tested. For the dTRPA1-mN chimera, the mouse 720 amino acid N-terminus was exchanged for the drosophila N-terminus. The N-terminal domain contains essential binding sites for AITC, and therefore studying this chimera tests an important role for the N-terminus in anesthetic-sensing. […] The mTRPA1-dTM5 construct was then studied, which is the mouse protein containing the fifth transmembrane domain of the drosophila protein.

dTRPA1-mN chimera = biological target: T2, dTRPA1-mN chimera (UniProt Q7Z020+Q8BLA8); assay: Current-voltage recordings of chimera dTRPA1-mN; assay type: cell-based; conditions: mouse N-terminus substituted
T2 construct: mouse TRPA1 N-terminus (720 amino acids); expressed in transfected cells
T2 sequence (Q8BLA8+Q7Z020 fused, change not shown): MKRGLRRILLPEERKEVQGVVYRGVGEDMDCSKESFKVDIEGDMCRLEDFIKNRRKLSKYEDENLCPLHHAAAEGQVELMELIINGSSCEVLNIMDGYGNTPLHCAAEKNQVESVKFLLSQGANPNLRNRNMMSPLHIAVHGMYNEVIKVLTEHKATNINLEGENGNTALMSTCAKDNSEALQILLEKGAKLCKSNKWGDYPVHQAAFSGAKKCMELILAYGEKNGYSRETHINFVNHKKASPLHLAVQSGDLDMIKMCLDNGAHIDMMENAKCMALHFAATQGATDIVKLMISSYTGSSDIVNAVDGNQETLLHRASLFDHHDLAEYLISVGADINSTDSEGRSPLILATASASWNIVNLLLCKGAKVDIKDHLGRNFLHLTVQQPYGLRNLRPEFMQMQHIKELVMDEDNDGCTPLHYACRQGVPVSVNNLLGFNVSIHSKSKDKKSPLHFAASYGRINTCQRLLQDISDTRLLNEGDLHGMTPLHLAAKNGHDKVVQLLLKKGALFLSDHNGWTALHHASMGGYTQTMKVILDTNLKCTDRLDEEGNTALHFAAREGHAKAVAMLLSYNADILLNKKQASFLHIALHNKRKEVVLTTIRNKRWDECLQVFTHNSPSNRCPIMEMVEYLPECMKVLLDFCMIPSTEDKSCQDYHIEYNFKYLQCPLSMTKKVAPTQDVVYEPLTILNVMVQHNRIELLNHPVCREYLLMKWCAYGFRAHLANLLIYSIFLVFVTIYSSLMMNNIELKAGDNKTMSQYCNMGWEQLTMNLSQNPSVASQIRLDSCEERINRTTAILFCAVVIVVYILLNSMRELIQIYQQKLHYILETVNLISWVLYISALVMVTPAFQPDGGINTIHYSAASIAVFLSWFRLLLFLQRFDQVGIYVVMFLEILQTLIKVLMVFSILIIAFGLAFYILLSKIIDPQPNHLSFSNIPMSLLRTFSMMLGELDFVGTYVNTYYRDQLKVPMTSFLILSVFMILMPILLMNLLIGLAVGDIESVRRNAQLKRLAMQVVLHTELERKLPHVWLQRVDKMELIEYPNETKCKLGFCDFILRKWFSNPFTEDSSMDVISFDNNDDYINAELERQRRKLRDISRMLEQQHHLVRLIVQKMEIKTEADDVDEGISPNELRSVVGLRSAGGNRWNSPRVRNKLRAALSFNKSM
Protocol: as §1

mTRPA1-dTM5 = assay: Current-voltage recordings of chimera mTRPA1-dTM5; assay type: cell-based
Protocol: as §1

[2] = system: AITC-sensitive DRG neurons; assay: Voltage- and current-clamp of DRG sensory neurons; assay type: cell-based, mouse; conditions: 0.9 mM, wild-type mice, voltage-clamp, 11 of 35
mutant S502A/S800A TRPV1 = biological target: T3, mutant S502A/S800A TRPV1 (Rattus norvegicus, UniProt O35433, S502A/S800A); assay: Heat activation in oocytes expressing mutant S502A/S800A TRPV1; assay type: cell-based
T3 construct: expressed in transfected cells; host or cells: Xenopus laevis oocytes (cRNA injection)
T3 sequence (O35433 whole entry S502A/S800A): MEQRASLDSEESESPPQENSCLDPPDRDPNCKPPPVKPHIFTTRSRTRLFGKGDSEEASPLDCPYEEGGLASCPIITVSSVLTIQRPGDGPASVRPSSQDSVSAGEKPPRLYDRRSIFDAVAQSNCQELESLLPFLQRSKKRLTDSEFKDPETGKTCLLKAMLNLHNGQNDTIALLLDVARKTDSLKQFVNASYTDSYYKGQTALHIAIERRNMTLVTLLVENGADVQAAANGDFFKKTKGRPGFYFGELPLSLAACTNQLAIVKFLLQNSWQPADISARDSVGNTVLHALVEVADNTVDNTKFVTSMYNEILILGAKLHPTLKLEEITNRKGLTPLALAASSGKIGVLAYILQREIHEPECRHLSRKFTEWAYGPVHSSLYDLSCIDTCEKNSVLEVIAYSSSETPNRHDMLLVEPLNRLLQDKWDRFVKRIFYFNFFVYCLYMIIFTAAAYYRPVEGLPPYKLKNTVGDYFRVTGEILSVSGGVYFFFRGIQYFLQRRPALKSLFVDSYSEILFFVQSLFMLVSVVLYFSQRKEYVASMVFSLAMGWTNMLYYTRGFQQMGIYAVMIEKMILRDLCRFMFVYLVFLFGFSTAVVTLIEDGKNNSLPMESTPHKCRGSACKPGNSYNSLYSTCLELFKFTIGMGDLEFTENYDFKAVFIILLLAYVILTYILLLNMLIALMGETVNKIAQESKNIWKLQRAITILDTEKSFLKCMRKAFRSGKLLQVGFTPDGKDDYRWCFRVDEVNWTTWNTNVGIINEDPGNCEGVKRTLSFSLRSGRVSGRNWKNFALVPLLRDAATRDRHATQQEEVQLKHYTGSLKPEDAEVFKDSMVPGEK
Protocol: Oocyte electrophysiology. […] Oocytes were placed in a Perspex chamber and continuously superfused (5 ml min-1) with Ca2+-free solution containing (in mM): 100 NaCl, 2.5 KCl, 5 HEPES, 1 MgCl2 and titrated to pH 7.3 with 5 mM NaOH. For solutions <pH 6.0, HEPES was replaced with either 5 mM MES or 5 mM sodium citrate. Oocytes were routinely voltage-clamped at -60 mV at 22-23° C.

TRPV1 = biological target: T4, TRPV1 (Mus musculus, UniProt Q704Y3); assay: Patch-clamp of capsaicin-sensitive sensory neurons (nodose ganglia); assay type: cell-based
T4 construct: endogenous in cells; host or cells: primary nodose ganglion neurons of adult C57Bl6/J mice
T4 sequence (Q704Y3 whole entry): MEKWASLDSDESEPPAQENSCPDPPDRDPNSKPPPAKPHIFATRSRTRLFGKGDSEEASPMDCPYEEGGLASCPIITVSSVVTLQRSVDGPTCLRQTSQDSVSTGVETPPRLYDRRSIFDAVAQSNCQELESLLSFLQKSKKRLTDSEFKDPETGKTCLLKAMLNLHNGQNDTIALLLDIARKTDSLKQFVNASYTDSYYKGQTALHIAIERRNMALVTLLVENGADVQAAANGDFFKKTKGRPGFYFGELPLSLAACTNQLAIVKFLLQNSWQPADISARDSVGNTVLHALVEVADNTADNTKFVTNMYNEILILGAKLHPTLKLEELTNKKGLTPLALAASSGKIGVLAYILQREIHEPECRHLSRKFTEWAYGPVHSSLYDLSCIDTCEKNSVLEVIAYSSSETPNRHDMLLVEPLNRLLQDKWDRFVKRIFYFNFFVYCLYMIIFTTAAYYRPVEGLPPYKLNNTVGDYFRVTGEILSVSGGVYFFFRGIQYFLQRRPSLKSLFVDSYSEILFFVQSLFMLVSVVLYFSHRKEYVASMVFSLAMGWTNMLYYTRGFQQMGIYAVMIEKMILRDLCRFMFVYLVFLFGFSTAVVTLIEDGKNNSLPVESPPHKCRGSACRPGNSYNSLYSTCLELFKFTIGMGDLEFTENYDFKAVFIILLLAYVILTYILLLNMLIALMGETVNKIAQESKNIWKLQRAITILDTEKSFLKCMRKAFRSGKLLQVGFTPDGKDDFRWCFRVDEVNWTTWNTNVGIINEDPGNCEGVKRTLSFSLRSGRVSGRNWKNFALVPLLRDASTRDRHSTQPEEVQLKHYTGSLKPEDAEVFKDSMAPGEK
Protocol: HEK cell and sensory neuron electrophysiology. HEK 293F cells (Invitrogen) were cultured in DMEM supplemented with 1% non-essential amino acids and 10% fetal calf serum. Cell cultures were maintained at 37° C. with 5% CO2. Cells were transfected with rat TRPV 1 (gift of David Julius), and GFP cDNA using Lipofectamine™ Transfection Reagent (Invitrogen) and used 24-48 h after transfection. Nodose ganglia were obtained from adult mice (C57B16/J and TRPV1-null), cut, digested with collagenase, and cultured in Neurobasal +2% B-27 medium (Invitrogen), 0.1% L-glutamine and 1% penicillin/streptomycin on poly-D lysine-coated glass coverslips at 37° C. in 5% CO2. Neurons were used within 24-36 hr of culture. Whole-cell and single-channel patch clamp recordings were performed using an EPC8 amplifier (HEKA). The current signal was low-pass filtered at 1-3 kHz and sampled at 4 kHz. Currents were further filtered for display purposes. For whole-cell and excised patch recordings the bath solution contained (in mM): 140 NaCl, 4 KCl, 1 MgCl2, 1 EGTA, 10 HEPES, 10 glucose pH 7.3 (290 mOsm). The pipette solution contained (in mM): 140 CsC1, 10 NaCl, 10 HEPES, 5 EGTA, 2 Mg ATP and 0.03 GTP, pH 7.3. The peak amplitudes measured either during the prepulse or the tail current (within 1 ms) were plotted as a function of the test potential and normalized to the maximal current obtained from the following Boltzmann function: […]

SMILES: FC(F)OC(F)C(F)(F)F (stereo not shown) [desflurane]
- Ca2+ responses in neurons from TRPA1-null mice [1]: no responses
- Activation of mouse TRPA1 (mouse TRPA1): activates
- Response of dTRPA1-mN chimera (dTRPA1-mN chimera): no responses
- Sensitivity of mTRPA1-dTM5 chimera (mTRPA1-dTM5): abolished

SMILES: FC(F)OC(Cl)C(F)(F)F (stereo not shown) [isoflurane]
- Neurons with evoked currents [2]: 31%
- Temperature threshold, mutant S502A/S800A TRPV1 (mutant S502A/S800A TRPV1; PDBu+isoflurane, n=3): 37.3±0.7 °C
- Temperature threshold, mutant S502A/S800A TRPV1 (mutant S502A/S800A TRPV1; isoflurane, n=5): 39.4±1.9 °C
- Capsaicin-evoked single channel activity (TRPV1; cell-free outside-out patches, capsaicin 30 nM, isoflurane 0.9 mM): increased
- Single TRPV1 channel activity in neurons after PDBu treatment (TRPV1; isoflurane 0.9 mM): activated
- Response of sensory neurons under control conditions (TRPV1; isoflurane 0.9 mM, AITC-insensitive neurons): negligible responses
- Enhancement of capsaicin-evoked whole-cell currents (TRPV1; isoflurane 0.9 mM, capsaicin 30 nM, n=5): approximately 3 fold
- Response of sensory neurons after BK treatment (TRPV1; isoflurane 0.9 mM, n=7, P<0.01): marked increase in current
- Membrane excitability under current-clamp, co-application with BK (TRPV1; n=3): depolarized neurons and initiated sustained spike discharge
